15 compounds from paper PMC11547015 (International Journal of Molecular Sciences, 2024) can be followed below.

This experiment concerns the target T1, human D2 receptor (Homo sapiens, UniProt P14416).
T1 construct: host or cells: CHO-K1
Kind of experiment: Dopamine assay: functional cAMP read-out (HitHunter cAMP XS+, Gi/o agonist format). It is filed as cell-based. The following applies: for EC50: CHO-K1 cells overexpressing the human D2 receptor, cAMP read-out, 25 µM forskolin, n = 2 independent experiments; for dopaminergic activity (in words): isolated compounds, D2 receptor activity assay; for change in activity on the D2 receptor relative to 7: compared with 3-epi-maslinic acid (7). The protocol:
Dopaminergic activity was determined with a functional assay in CHO-K1 cells overexpressing the human D2 receptor, using a cAMP read-out (Eurofins DiscoverX Corporation, Fremont, CA, USA). The cells (5000 cells/cm^2) were seeded in a total volume of 20 μL onto white 384-well microplates and incubated at 37 °C for 18 h prior to testing. cAMP modulation was determined using the DiscoverX HitHunter cAMP XS+ assay. Since the D2 receptor couples mainly to Gi/o (inhibitory towards cAMP), the assay was run in Gi/o agonist format. In brief, the cells were incubated with the samples in the presence of 25 µM forskolin to induce a response. Medium was aspirated from cells and replaced with 10 µL HBSS/10 mM Hepes (assay buffer). Intermediate dilution of sample stocks was performed in the assay buffer to generate a concentration 4-fold higher (4×) than the final in-well concentration. A total of 5 µL of 4× sample was added to the cells, followed by 5 µL 4× EC80 forskolin in the assay buffer and incubated at 37 °C for 30 min. The final DMSO concentration (vehicle) was 1%. After appropriate compound incubation, the assay signal was generated through incubation with 5 µL of cAMP XS + Ab reagent followed by 20 μL cAMP XS + ED/CL lysis cocktail for one hour followed by incubation with 20 μL cAMP XS + EA reagent for three hours at room temperature. The microplates were read following signal generation with an Envision^TM instrument (PerkinElmer, Waltham, MA, USA) for chemiluminescent signal detection.
For Gi agonist mode assays, percentage activity was calculated using the following formula: % Activity = 100% × (1 − (mean RLU of test sample − mean RLU of MAX control)/(mean RLU of vehicle control − mean RLU of MAX control)). Concentration–response curves were generated using EC50 using Graphpad Prism version 9.0 (Graphpad Software, Boston, MA, USA), and curve fitting was performed using non-linear regression analysis applying the following variable slope equation: Y = Bottom + (Top − Bottom)/(1 + 10^((LogEC50 − X) × HillSlope)).

Where [1] appears, read: read-out: EC50 at the D2 receptor.

Molecules are shown by their SMILES. Values joined by “and” are separate entries in the source; they are usually repeats but may differ in a detail not shown here. Identical values can stand only once. “Also recorded” adds a separate entry of the source. Like-named read-outs stand apart in the source and are kept apart here. Where only a bound is given, the exact number is not on record here.

T1 sequence (P14416 whole entry): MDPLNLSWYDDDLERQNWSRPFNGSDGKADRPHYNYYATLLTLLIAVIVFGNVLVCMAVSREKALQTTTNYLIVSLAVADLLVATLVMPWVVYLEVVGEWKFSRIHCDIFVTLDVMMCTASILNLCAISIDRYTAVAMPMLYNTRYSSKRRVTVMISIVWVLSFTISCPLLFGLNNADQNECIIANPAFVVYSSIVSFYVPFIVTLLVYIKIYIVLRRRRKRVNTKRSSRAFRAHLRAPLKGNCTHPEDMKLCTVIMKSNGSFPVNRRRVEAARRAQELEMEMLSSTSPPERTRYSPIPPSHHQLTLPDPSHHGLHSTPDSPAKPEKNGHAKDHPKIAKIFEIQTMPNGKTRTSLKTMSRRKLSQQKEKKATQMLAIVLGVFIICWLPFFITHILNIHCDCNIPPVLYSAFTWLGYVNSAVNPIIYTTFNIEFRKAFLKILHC

Take `CC1(C)CC[C@]2(C(=O)O)CC[C@]3(C)C(=CC[C@@H]4[C@@]5(C)C[C@@H](O)[C@H](O)[C@@](C)(CO)[C@@H]5CC[C@]43C)[C@@H]2C1` [arjunolic acid, reference compound]: the EC50 (commonly the concentration needed to bring the measured effect to its halfway point) under setting [1] is at least 50 µM.

Consider `CC(=O)O[C@@H]1C[C@@H](C)[C@](O)(CCC2=CC(=O)OC2O)[C@@]2(C)CCCC(C)(C)[C@H]12` (stereo partly shown) [compound 1, Viteagnusin I], for which the IC50 – broadly, the concentration that gives 50% inhibition – is 6.6 µM. The EC50 (EC50 at the D2 receptor) was 6.61 µM and 6.6 µM.

In the case of `CC(=O)O[C@@H]1C[C@@H](C)[C@](O)(CCc2ccoc2)[C@@]2(C)CCCC(C)(C)[C@H]12` [compound 2, Rotundifuran], under setting [1], the 50% effective concentration (EC50) was 12.8 µM.

For `CC(=O)O[C@@H]1C[C@@H](C)[C@](O)(CCC2=CC(=O)OC2)[C@@]2(C)CCCC(C)(C)[C@H]12` [compound 3, Vitexilactone], the EC50 under setting [1] was above 50 µM.

For `C=CC(C)(O)CC[C@@H]1[C@@]2(C)CCCC(C)(C)[C@@H]2CC[C@]1(C)O` (stereo partly drawn) [compound 4, 8-epi-Sclareol], the “dopaminergic activity (in words)” value was “either negligible or no dopaminergic activity; also recorded: either weak or no dopaminergic activity”. Moreover, the EC50 under setting [1] was determined as 24.3 µM.

Consider `C=CC(C)(O)CC[C@H]1[C@@]2(C)CCCC(C)(C)[C@@H]2CC[C@@]1(C)O` (stereo partly shown) [compound 5, Viteagnusin C], for which the “dopaminergic activity (in words)” value is recorded as “either negligible or no dopaminergic activity; also recorded: either weak or no dopaminergic activity”. Further, the EC50 under setting [1] is above 50 µM.

As to `C=CC(C)(O)CC[C@@]1(C)C2=C([C@H](OC(C)=O)[C@H](OC(C)=O)[C@H]1C)C(C)(C)CCC2` (stereo partly shown) [compound 6, Vitetrifolin D], the “dopaminergic activity (in words)” value was “either negligible or no dopaminergic activity; also recorded: either weak or no dopaminergic activity”. Further, the EC50 (EC50 at the D2 receptor) was above 50 µM.

`CC1(C)CC[C@]2(C(=O)O)CC[C@]3(C)C(=CC[C@@H]4[C@@]5(C)C[C@@H](O)[C@@H](O)C(C)(C)[C@@H]5CC[C@]43C)[C@@H]2C1` [compound 7, 3-epi-Maslinic acid]: the “dopaminergic activity (in words)” value is “active”. The EC50 (EC50 at the D2 receptor) turned out to be 5.1 µM.

For `CC1(C)CC[C@]2(C(=O)O)CC[C@]3(C)C(=CC[C@@H]4[C@@]5(C)C[C@@H](O)[C@H](O)C(C)(C)[C@@H]5CC[C@]43C)[C@@H]2C1` [compound 8, Maslinic acid], the “change in activity on the D2 receptor relative to 7” value stood at 4 fold and the “dopaminergic activity (in words)” value was “active”. In addition, under “EC50 at the D2 receptor”, the EC50 was found to be 21.3 µM.

For `C[C@H]1[C@H](C)CC[C@]2(C(=O)O)CC[C@]3(C)C(=CC[C@@H]4[C@@]5(C)C[C@@H](O)[C@@H](O)C(C)(C)[C@@H]5CC[C@]43C)[C@H]12` [compound 9, 3-epi-Corosolic acid], the “change in activity on the D2 receptor relative to 7” value is given as 2 fold and the “dopaminergic activity (in words)” value was “active”. The EC50 (EC50 at the D2 receptor) turned out to be 10.7 µM.

Regarding `C[C@H]1[C@H](C)CC[C@]2(C(=O)O)CC[C@]3(C)C(=CC[C@@H]4[C@@]5(C)C[C@@H](O)[C@H](O)C(C)(C)[C@@H]5CC[C@]43C)[C@H]12` [compound 10, Corosolic acid], the EC50 (EC50 at the D2 receptor) is above 50 µM. The “change in activity on the D2 receptor relative to 9” value (epimers 9 and 10, differing at C3) was above 5 fold.

Consider `C[C@@H]1CC[C@]2(C(=O)O)CC[C@]3(C)C(=CC[C@@H]4[C@@]5(C)C[C@@H](O)[C@@H](O)C(C)(C)[C@@H]5CC[C@]43C)[C@@H]2[C@]1(C)O` [compound 11, Euscaphic acid], for which the EC50 under setting [1] is above 50 µM.

Take `C[C@@H]1CC[C@]2(C(=O)O)CC[C@]3(C)C(=CC[C@@H]4[C@@]5(C)C[C@@H](O)[C@H](O)C(C)(C)[C@@H]5CC[C@]43C)[C@@H]2[C@]1(C)O` [compound 12, Tormentic acid]: under setting [1], the EC50 was above 50 µM.

`CC1(C)CC[C@]2(C(=O)O)CC[C@]3(C)C(=CC[C@@H]4[C@@]5(C)CC[C@H](O)C(C)(C)[C@@H]5CC[C@]43C)[C@@H]2C1` [oleanolic acid, reference compound]: the EC50 (EC50 at the D2 receptor) is at least 50 µM.

As for `C[C@H]1[C@H](C)CC[C@]2(C(=O)O)CC[C@]3(C)C(=CC[C@@H]4[C@@]5(C)CC[C@H](O)C(C)(C)[C@@H]5CC[C@]43C)[C@H]12` [ursolic acid, reference compound], the EC50 under setting [1] is at least 50 µM.
